In assay [1] the target is T1, Genome polyprotein (dengue virus type 2, UniProt P29990). The assay is classed as functional, Thailand/16681/1984.
Assay [2] addresses T1, Genome polyprotein. It counts as functional, Thailand/16681/1984. This is another data set of the same source.

pIC50: −log10 of the molar value. Values joined by “and” are separate entries in the source; they are usually repeats but may differ in a detail not shown here. Identical values can stand only once.

T1 sequence (P29990 1346-1475 limits assumed): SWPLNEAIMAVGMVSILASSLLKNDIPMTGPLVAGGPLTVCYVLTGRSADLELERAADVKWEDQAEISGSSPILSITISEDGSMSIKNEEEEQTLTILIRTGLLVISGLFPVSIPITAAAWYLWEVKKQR
T1 sequence (P29990 1476-2093 limits assumed): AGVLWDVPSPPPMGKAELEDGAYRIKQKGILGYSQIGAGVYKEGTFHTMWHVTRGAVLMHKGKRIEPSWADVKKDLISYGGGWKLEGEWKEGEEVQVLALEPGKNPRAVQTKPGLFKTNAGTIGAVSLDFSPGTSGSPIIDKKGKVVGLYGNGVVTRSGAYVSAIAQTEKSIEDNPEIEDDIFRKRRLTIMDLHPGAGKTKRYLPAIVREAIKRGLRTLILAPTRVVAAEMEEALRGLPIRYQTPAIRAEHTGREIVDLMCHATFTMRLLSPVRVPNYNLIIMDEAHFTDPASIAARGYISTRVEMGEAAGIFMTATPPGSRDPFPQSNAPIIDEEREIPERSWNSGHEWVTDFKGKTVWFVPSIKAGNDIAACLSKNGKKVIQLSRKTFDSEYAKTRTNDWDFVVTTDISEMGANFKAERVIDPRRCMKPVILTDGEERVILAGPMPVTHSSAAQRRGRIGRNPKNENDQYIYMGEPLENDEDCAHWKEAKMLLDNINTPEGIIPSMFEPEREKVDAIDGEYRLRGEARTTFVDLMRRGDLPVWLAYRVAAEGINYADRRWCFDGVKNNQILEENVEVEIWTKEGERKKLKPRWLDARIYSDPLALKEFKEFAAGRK

As to `O=C(Nc1ccc2c(c1)CNC2)c1ccnc(CO)c1`, the pIC50 against Genome polyprotein [1] and against Genome polyprotein [2] was less than 4.00 throughout.
With `O=C(NCC(F)F)[C@H](Nc1ccc2c(c1)CNC2)c1cc(Cl)ccc1Sc1ccccc1`, the negative-log IC50 (pIC50) against Genome polyprotein [1] and at Genome polyprotein [2] was less than 4.00 throughout.
Regarding `CN1CCC([C@H]2CCCN(C(=O)Nc3ccc4c(c3)CNC4)C2)CC1`, the pIC50 against Genome polyprotein [1] and at Genome polyprotein [2] was less than 4.00 throughout.
For the molecule `C[C@]1(S(C)(=O)=O)C(=O)Nc2cc(F)cc(C(=O)Nc3ccc4c(c3)CNC4)c21`, the pIC50 against Genome polyprotein [1] and at Genome polyprotein [2] was less than 4.00 throughout.
On to `CC1=CC[C@H](c2cccc(-c3nn[nH]n3)c2)Nc2cc(Cl)ccc21`, for which the pIC50 against Genome polyprotein [1] is 4.47; against Genome polyprotein [2], 4.16.
The corresponding values for `O=C(Nc1cc(Cl)cc(C(=O)Nc2ccc3c(c2)COC3)c1)OCc1ccccc1` are less than 4.00 and less than 4.00.
In the same order, the values of `O=C(Nc1cc(Cl)cc(C(=O)NCCc2nnn[nH]2)c1)OCc1ccccc1` are less than 4.00 and less than 4.00.
In the same order, the values of `CCc1sc(C(=O)Nc2cccc(-c3nnn[nH]3)c2)cc1C` are less than 4.00 and less than 4.00.
Consider `CO[C@]1(C)C(=O)Nc2cc(F)cc(C(=O)Nc3ccc4c(c3)CNC4)c21`, for which the pIC50 on Genome polyprotein [1] and against Genome polyprotein [2] was less than 4.00 in each case.
As to `Cc1c(C(=O)Nc2cc(C(=O)N3CC(C(N)=O)C3)ccn2)cc(C2CC2)n1C`, the negative logarithm of the IC50 (pIC50) on Genome polyprotein [1] and against Genome polyprotein [2] was less than 4.00 each time.
In the case of `NCc1cccc(NC(=O)c2cc(Br)cnc2OCC2CC2)c1`, the pIC50 at Genome polyprotein [1] and on Genome polyprotein [2] was less than 4.00 throughout.
`NCc1cccc(NC(=O)c2cc(NC(=O)OCc3ccccc3)ccc2C(F)(F)F)c1`: the pIC50 at Genome polyprotein [1] and against Genome polyprotein [2] was less than 4.00 each time.
In the case of `Cc1cccc(-c2nc3c(C(=O)Nc4ccc5c(c4)CNC5)cc(Cl)cc3[nH]2)c1O`, the pIC50 against Genome polyprotein [1] is 4.73; at Genome polyprotein [2] it was 5.14 and 5.27 and 5.37.
In the case of `O=C(Nc1cc(-c2cccnc2)ccn1)c1nc(C2CC2)co1`, the pIC50 against Genome polyprotein [1] and against Genome polyprotein [2] was less than 4.00 in each case.
`Cc1nccn1-c1ccc(Cl)cc1C(=O)Nc1cccc(CN)c1`: the pIC50 against Genome polyprotein [1] and at Genome polyprotein [2] was less than 4.00 throughout.
With `Nc1n[nH]c2cc(C(=O)Nc3ccc4c(c3)CNC4)ccc12`, the negative-log IC50 (pIC50) against Genome polyprotein [1] and on Genome polyprotein [2] was less than 4.00 each time.
As to `O=C(Nc1ccc2c(n1)CNC2)c1cc(Cl)cc2[nH]ncc12`, the negative logarithm of the IC50 (pIC50) against Genome polyprotein [1] and against Genome polyprotein [2] was less than 4.00 in each case.
`CN(C)C(=O)C[C@H]1NCc2cc(NC(=O)c3cc(Cl)cc4[nH]ncc34)ccc21`: the pIC50 against Genome polyprotein [1] and on Genome polyprotein [2] was less than 4.00 throughout.
For `COC(=O)c1cc(CN)cc([C@@H]2C[C@H]2c2cc(Cl)cc(NC(=O)OCc3ccccc3)c2)c1`, the pIC50 at Genome polyprotein [1] and at Genome polyprotein [2] was less than 4.00 throughout.
On to `NCc1cccc(NC(=O)c2cc(Cl)ccc2OC2CCCC2)c1`, for which the pIC50 on Genome polyprotein [1] and against Genome polyprotein [2] was less than 4.00 each time.
For the molecule `O=C(O)c1cc2cccc(Cc3c[nH]c4ccc(Cl)cc34)c2[nH]1`, the pIC50 against Genome polyprotein [1] is 4.67; on Genome polyprotein [2], 4.28.
For the molecule `C[C@@H]1CNC[C@H]1c1ccc(NC(=O)c2ccc3c(c2)SCCN3)cc1`, the pIC50 against Genome polyprotein [1] and on Genome polyprotein [2] was less than 4.00 in each case.
Take `O=C(Nc1cc(Cl)cc(C(=O)Nc2ccc3c(c2)CNC3)c1)OCc1ccccc1`: the pIC50 at Genome polyprotein [1] and at Genome polyprotein [2] was less than 4.00 throughout.
Turning to `NCc1cccc(NC(=O)c2cc(Cl)ccc2NS(=O)(=O)c2ccccc2)c1`, the negative logarithm of the IC50 (pIC50) against Genome polyprotein [1] and against Genome polyprotein [2] was less than 4.00 in each case.
Take `Cn1cc([C@@H]2C[C@H](C(=O)Nc3cccc(CN)c3)CC(=O)N2)cn1`: the pIC50 against Genome polyprotein [1] and against Genome polyprotein [2] was less than 4.00 throughout.
For `O=C1Cc2cc(NC(=O)c3cc(Cl)cc4[nH]ncc34)ccc2N1`, the pIC50 on Genome polyprotein [1] and against Genome polyprotein [2] was less than 4.00 in each case.
`C=CC[C@H]1NCc2cc(NCc3cc(Cl)cc4[nH]ncc34)ccc21`: the pIC50 against Genome polyprotein [1] and against Genome polyprotein [2] was less than 4.00 each time.
For `O=C(Nc1ccc2c(c1)C[C@H](O)C2)c1cc(Cl)cc2[nH]ncc12`, the pIC50 at Genome polyprotein [1] and against Genome polyprotein [2] was less than 4.00 in each case.
With `Cc1c(C(=O)Nc2cccc(-c3ccccc3)c2)cc(C2CC2)n1C`, the pIC50 against Genome polyprotein [1] and against Genome polyprotein [2] was less than 4.00 in each case.
In the case of `O=C(O)C[C@H](NC(=O)OCc1ccccc1)c1ccc(OCc2ccccc2)c(Br)c1`, the pIC50 on Genome polyprotein [1] was 4.34; on Genome polyprotein [2], 4.22.
The corresponding values for `NCc1cccc(NC(=O)[C@H](NC(=O)OCc2ccccc2)C2CCN(C(=O)C3CCOCC3)CC2)c1` are less than 4.00 and less than 4.00.
The corresponding values for `O=C(Nc1ccc2c(c1)CNC2)c1cc(Cl)cc2nccnc12` are 4.11 and 4.13.
For `O=C(Nc1ccc2c(c1)CNC2)N1CC[C@H](CC(F)(F)F)C1`, the negative logarithm of the IC50 (pIC50) against Genome polyprotein [1] and on Genome polyprotein [2] was less than 4.00 each time.
Regarding `NCc1cccc(NC(=O)[C@H](NC(=O)OCc2ccccc2)C2CCN(Cc3ccccn3)CC2)c1`, the pIC50 against Genome polyprotein [1] and against Genome polyprotein [2] was less than 4.00 in each case.
Consider `COCCNC(=O)[C@H](Nc1cccc([C@H]2CCOC2)c1)c1cc(F)cc2[nH]ccc12`, for which the pIC50 against Genome polyprotein [1] and at Genome polyprotein [2] was less than 4.00 in each case.
Consider `CCc1nc(C(=O)Nc2cccc(CN)c2)nn1-c1c(Cl)cccc1Cl`, for which the pIC50 against Genome polyprotein [1] and on Genome polyprotein [2] was less than 4.00 each time.
Regarding `CC(C)S(=O)(=O)N1CCC([C@@H](NC(=O)OCc2ccccc2)C(=O)Nc2cccc(CN)c2)CC1`, the pIC50 against Genome polyprotein [1] and on Genome polyprotein [2] was less than 4.00 throughout.
As for `Cn1nccc1-c1cc(NC(=O)c2cc(F)cc3[nH]ncc23)cc2c1CNC2`, the results for the pIC50 against Genome polyprotein [1] and against Genome polyprotein [2] were 4.09 and 4.27, respectively.
In the case of `CC[C@H](Cc1nnn[nH]1)c1ccc(NC(=O)c2cc(Cl)cc(C3CC3)c2)cc1`, the pIC50 is 4.54 and 4.46 on Genome polyprotein [1]; 4.26 against Genome polyprotein [2].
As to `O=C(Nc1cc(Cl)cc(-c2ccc3[nH]nc(C(=O)O)c3c2)c1)OCc1ccccc1`, the pIC50 against Genome polyprotein [1] is 5.20 and 5.30; on Genome polyprotein [2], 5.04.
Take `O=C(Nc1ccc2c(c1)CNC2)c1cc(F)cc(-c2cnc3n2CCC3)c1`: the pIC50 against Genome polyprotein [1] and against Genome polyprotein [2] was less than 4.00 throughout.
On to `O=C(Nc1cc(Cl)cc(C(=O)Nc2ccc(CC3CCNCC3)cc2)c1)OCc1ccccc1`, for which the pIC50 at Genome polyprotein [1] was 4.48; at Genome polyprotein [2] it was 4.85 and 4.76.
With `Cc1c(C(=O)Nc2cc(CCCN)ccn2)cc(C2CCC2)n1C`, the pIC50 against Genome polyprotein [1] and on Genome polyprotein [2] was less than 4.00 in each case.
For the molecule `CC(C)Oc1ccc(Cl)cc1[C@H](Nc1ccc2c(c1)CNC2)C(=O)NCC(F)F`, the pIC50 at Genome polyprotein [1] and at Genome polyprotein [2] was less than 4.00 in each case.
Take `CNc1c(-c2cc(Cl)cc(C3CC3)c2)nc2cc(C(=O)O)ccn12`: the pIC50 at Genome polyprotein [1] and at Genome polyprotein [2] was less than 4.00 in each case.
Consider `N#Cc1cc2c(cc1NC(=O)c1cc(F)cc3[nH]ncc13)CNC2`, for which the pIC50 against Genome polyprotein [1] is 4.79 and 4.49; at Genome polyprotein [2], 4.49 and 4.60.
In the case of `C#Cc1cc(NC(=O)OCc2ccccc2)cc(C(=O)Nc2cccc(CN)c2)c1`, the pIC50 was less than 4.00 at Genome polyprotein [1] and 4.09 on Genome polyprotein [2].
In the same order, the values of `CCc1[nH]c2ccccc2c1CN1CCC(c2cscn2)CC1` are less than 4.00 and less than 4.00.
On to `O=C(Nc1ccc2c(c1)CNC2)c1cc(Br)cc2[nH]c(-c3ccccc3)nc12`, for which the pIC50 against Genome polyprotein [1] is 5.23 and 5.21; on Genome polyprotein [2], 5.56 and 5.63.
Consider `O=C(Nc1cc(Cl)cc(C(=O)NCC[C@H]2C[C@@H]2C(=O)O)c1)OCc1ccccc1`, for which the pIC50 at Genome polyprotein [1] and at Genome polyprotein [2] was less than 4.00 each time.
Turning to `O=C1Cc2c(cccc2C(=O)Nc2cc3c(cn2)OCCO3)N1`, the pIC50 against Genome polyprotein [1] and against Genome polyprotein [2] was less than 4.00 throughout.
Take `NCc1cccc(NC(=O)c2cccc3c2CCC3)c1`: the pIC50 on Genome polyprotein [1] and against Genome polyprotein [2] was less than 4.00 each time.
Consider `O=C(NCC(F)F)[C@H](Nc1ccc2c(c1)CNC2)c1cc(Cl)cc2c1CCC2`, for which the pIC50 against Genome polyprotein [1] and at Genome polyprotein [2] was less than 4.00 throughout.
Regarding `COCCNC(=O)[C@H](Nc1ccc2c(c1)CNC2)c1cc(Cl)cc(C2CC2)c1`, the negative logarithm of the IC50 (pIC50) against Genome polyprotein [1] and on Genome polyprotein [2] was less than 4.00 throughout.
Regarding `CC(=O)NCc1cccc(NC(=O)c2cc(Cl)cc(NC(=O)OCc3ccccc3)c2)c1`, the pIC50 against Genome polyprotein [1] and at Genome polyprotein [2] was less than 4.00 in each case.
On to `Cc1c(C(=O)Nc2cc(-c3cccnc3)ccn2)cc(C2CC2)n1C`, for which the pIC50 at Genome polyprotein [1] is 5.17 and 5.01; against Genome polyprotein [2] it was 5.04 and 5.08 and 5.20.
Turning to `NC[C@@H](NC(=O)c1cc(Cl)cc(NC(=O)OCc2ccccc2)c1)c1ccccc1`, the pIC50 at Genome polyprotein [1] and against Genome polyprotein [2] was less than 4.00 in each case.
As for `O=C(Nc1cc(Cl)cc(C(=O)Nc2cccc([C@H]3CNCCO3)c2)c1)OCc1ccccc1`, the negative logarithm of the IC50 (pIC50) against Genome polyprotein [1] and on Genome polyprotein [2] was less than 4.00 each time.
Turning to `Clc1ccc(-c2cc(CN3CCC(c4cscn4)CC3)[nH]n2)cc1`, the pIC50 against Genome polyprotein [1] and against Genome polyprotein [2] was less than 4.00 throughout.
For the molecule `O=C(Nc1ccc2c(c1)CNC2)c1cc(Cl)cc2[nH]c(-c3ccccc3)nc12`, the pIC50 against Genome polyprotein [1] was 4.29 and 4.67; at Genome polyprotein [2], 5.48.
As for `CS(=O)(=O)c1cccc(NC(=O)c2cc(Cl)cc(NC(=O)OCc3ccccc3)c2)c1`, the pIC50 on Genome polyprotein [1] and on Genome polyprotein [2] was less than 4.00 in each case.
Consider `CO[C@H]1CCCN(C(=O)c2ccnc(NC(=O)c3cc(C4CC4)n(C)c3C)c2)C1`, for which the pIC50 against Genome polyprotein [1] and against Genome polyprotein [2] was less than 4.00 in each case.
As to `O=C(O)Cn1nc2ccc(-c3cc(Cl)cc(NC(=O)OCc4ccccc4)c3)nn2c1=O`, the pIC50 against Genome polyprotein [1] and at Genome polyprotein [2] was less than 4.00 throughout.
As for `O=C(Nc1ccc2c(c1)CNC2)c1cccnc1`, the pIC50 against Genome polyprotein [1] and at Genome polyprotein [2] was less than 4.00 throughout.
With `Cc1cc(C(=O)Nc2cccc(CN)c2)cc(O)n1`, the pIC50 at Genome polyprotein [1] and against Genome polyprotein [2] was less than 4.00 throughout.
`NCc1cccc(NC(=O)[C@H](NC(=O)OCc2ccccc2)C2CCN(C(=O)[C@H]3C[C@H](O)C3)CC2)c1`: the negative logarithm of the IC50 (pIC50) on Genome polyprotein [1] and on Genome polyprotein [2] was less than 4.00 each time.
Take `O=C(Nc1ccc2c(c1)CNC2)c1cc(Cl)cc2[nH]c(-c3ccc(F)cc3O)nc12`: the pIC50 against Genome polyprotein [1] was 4.22; at Genome polyprotein [2], 4.62.
For `NCc1cccc(NC(=O)[C@@H](NC(=O)OCc2ccccc2)c2ccc(OCc3nc4c(s3)COCC4)cc2)c1`, the pIC50 at Genome polyprotein [1] and on Genome polyprotein [2] was less than 4.00 each time.

What is called pIC50 is −log10 of the IC50, conventionally taken in molar units.

For the origin of these results see ChEMBL document CHEMBL5604063, “ASAP - DENV-2 NS2B-NS3 protease fluorescence dose response” (2024).
